Laboratory results published in ChEMBL document CHEMBL1201862, “PubChem BioAssay data set” (2004).
Active and inactive are the calls of the source.

What was measured:
[1] = target: T1, Corticotropin-releasing factor receptor 2/Corticotropin-releasing factor-binding protein (Homo sapiens, UniProt P24387+Q13324); test: activators of CRF receptor 2 with binding protein – uHTS hits, confirmation (AID 602473); assay type: functional; details: read-out: EC50_Mean
T1 sequence (Q13324 whole entry): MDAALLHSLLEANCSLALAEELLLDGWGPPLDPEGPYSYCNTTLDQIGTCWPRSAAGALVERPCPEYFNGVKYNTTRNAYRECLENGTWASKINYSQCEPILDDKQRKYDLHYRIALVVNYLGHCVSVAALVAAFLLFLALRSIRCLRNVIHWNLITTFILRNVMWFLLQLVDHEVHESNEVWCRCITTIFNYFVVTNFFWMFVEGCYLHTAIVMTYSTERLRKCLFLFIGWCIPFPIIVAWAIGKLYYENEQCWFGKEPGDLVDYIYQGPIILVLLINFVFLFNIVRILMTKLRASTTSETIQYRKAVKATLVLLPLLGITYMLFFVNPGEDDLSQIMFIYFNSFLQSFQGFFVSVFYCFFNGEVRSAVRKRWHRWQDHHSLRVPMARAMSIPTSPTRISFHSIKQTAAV
T1 sequence (P24387 whole entry): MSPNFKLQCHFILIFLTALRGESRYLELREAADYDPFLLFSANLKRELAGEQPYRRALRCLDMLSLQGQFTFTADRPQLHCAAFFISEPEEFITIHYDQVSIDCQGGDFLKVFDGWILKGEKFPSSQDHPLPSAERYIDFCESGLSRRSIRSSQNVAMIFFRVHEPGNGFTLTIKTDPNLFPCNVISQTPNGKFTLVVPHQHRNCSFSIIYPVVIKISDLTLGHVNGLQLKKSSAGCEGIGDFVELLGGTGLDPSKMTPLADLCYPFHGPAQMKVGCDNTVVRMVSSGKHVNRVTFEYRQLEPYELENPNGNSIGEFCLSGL

[2] = target: T1, Corticotropin-releasing factor receptor 2/Corticotropin-releasing factor-binding protein; test: Dose Response confirmation of uHTS hits for small molecule antagonists of the CRF-binding protein and CRF-R2 receptor complex.; assay type: functional; details: read-out: IC50_Mean
[3] = target: T2, Carboxy-terminal domain RNA polymerase II polypeptide A small phosphatase 1 (Homo sapiens, UniProt Q9GZU7); test: CTDSP1 inhibitors, concentration-response, biochemical, absorbance readout, ultra-high-throughput screen actives (AID 540297); assay type: functional
T2 sequence (Q9GZU7 whole entry): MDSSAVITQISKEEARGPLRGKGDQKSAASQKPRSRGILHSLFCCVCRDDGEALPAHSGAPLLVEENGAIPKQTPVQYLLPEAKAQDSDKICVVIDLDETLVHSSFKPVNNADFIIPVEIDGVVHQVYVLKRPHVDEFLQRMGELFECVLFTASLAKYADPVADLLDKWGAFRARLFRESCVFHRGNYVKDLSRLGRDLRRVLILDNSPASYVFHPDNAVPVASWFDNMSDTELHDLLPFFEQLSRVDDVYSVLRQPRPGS

[4] = target: Genome polyprotein (dengue virus type 2, UniProt P29990); test: flavivirus cap methylation enzyme inhibition – biochemical, confirmation dose response, primary screen (AID 588689); assay type: functional
[5] = target: Heat shock protein HSP 90-alpha (Homo sapiens, UniProt P07900); assay type: functional, organism-based
[6] = blockers of HIV-1 envelope-mediated cell-cell fusion – cherry-pick, dose response (AID 652057); assay type: functional, cell-based
[7] = HIV-1 AD8 envelope cell-cell fusion blockers – cherry-pick, dose response (AID 652062); assay type: functional, cell-based;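 also: luciferase signal from cell-cell fusion driven by HIV-1 clade B AD8 Env; potency is for inhibitors of fusion seen as a drop in luminescence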
[8] = target: Cytochrome P450 2C19 (Homo sapiens, UniProt P33261); test: Cytochrome panel assay with activity outcomes. Panel member name: p450-cyp2c19 Compounds with AC50 equal or less than 10 uM are considered active; assay type: functional; details: read-out: AC50
[9] = target: Cytochrome P450 2C9 (Homo sapiens, UniProt P11712)
[10] = test system: SN12K1; test: cells; assay type: functional; details: Homo sapiens
[11] = test system: P388; test: cells; assay type: functional; details: Mus musculus;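 also: compound exposure lasted 48 hours before growth was measured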
[12] = target: T3, Cytochrome P450 1A2 (Homo sapiens, UniProt P05177);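 also: PubChem cytochrome P450 panel assay, CYP1A2 panel member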
T3 sequence (P05177 whole entry): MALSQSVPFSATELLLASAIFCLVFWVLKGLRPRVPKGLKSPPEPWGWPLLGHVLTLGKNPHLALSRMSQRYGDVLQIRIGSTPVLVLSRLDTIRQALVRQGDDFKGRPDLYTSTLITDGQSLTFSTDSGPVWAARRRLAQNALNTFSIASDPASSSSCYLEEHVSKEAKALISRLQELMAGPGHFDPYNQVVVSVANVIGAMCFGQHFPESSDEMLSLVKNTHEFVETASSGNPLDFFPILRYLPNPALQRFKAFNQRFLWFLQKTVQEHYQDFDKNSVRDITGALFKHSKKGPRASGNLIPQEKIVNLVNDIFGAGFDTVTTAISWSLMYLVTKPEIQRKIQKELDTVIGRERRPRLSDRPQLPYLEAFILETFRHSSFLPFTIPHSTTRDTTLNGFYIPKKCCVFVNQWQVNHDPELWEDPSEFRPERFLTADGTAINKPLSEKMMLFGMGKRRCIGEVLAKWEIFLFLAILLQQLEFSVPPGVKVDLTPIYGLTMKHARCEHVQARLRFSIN

[13] = target: T4, Polyadenylate-binding protein 1 (Homo sapiens, UniProt P11940); test: MLLE domain peptide-binding blockers, IC50 – biochemical, fluorescence polarization, FITC-PAM2 peptide, dose response (AID 602259); assay type: functional; details: read-out: IC50_Mean
[14] = test system: Streptococcus; test: GAS UMAA2166 growth inhibition – luminescence, BacTiterGlo, counter-screen for streptokinase expression inhibitor project, dose response (AID 1915); assay type: functional, organism-based;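 also: potency for reduction of bacterial viability or growth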
[15] = test system: INS1; test: INS-1E survival protection against cytokine death – cell-based, luminescence, retest, dose response (AID 449756); assay type: functional; details: Rattus norvegicus;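 also: cell death triggered by IL-1 beta plus TNF-alpha plus IFN-gamma mixture; protective hits raise ATP signal compared with cytokine alone wells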
[16] = test system: Streptococcus sp. 'group A'; test: Streptococcus pyogenes SK(-)GAS viability under kanamycin – luminescence, BacTiterGlo, confirmation, counter-screen for streptokinase expression inhibitor project, dose response (AID 1900); assay type: functional, organism-based
[17] = target: T4, Polyadenylate-binding protein 1; test: MLLE binding blockers, Cy5 peptide tracer – biochemical, fluorescence polarization, Cy5-PAM2 peptide, secondary, miRNA deadenylation inhibitor project, dose response (AID 602260); assay type: functional; details: read-out: IC50_Mean
[18] = target: Cytochrome P450 2D6 (Homo sapiens, UniProt P10635);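 also: CYP2D6 member of a cytochrome P450 panel assay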
[19] = Luminescence Cell-Based Dose Retest to Confirm Inhibitors of Cancer Stem Cells. [Related pubchem assays (depositor defined):AID2717, AID2721]; assay type: functional; details: Homo sapiens
[20] = target: T5, High affinity choline transporter 1 (Homo sapiens, UniProt Q9GZV3); test: human choline transporter blockers, potency – cell-based, 5-point CRC, membrane potential dye, dose response (AID 504840); assay type: functional
T5 sequence (Q9GZV3 whole entry): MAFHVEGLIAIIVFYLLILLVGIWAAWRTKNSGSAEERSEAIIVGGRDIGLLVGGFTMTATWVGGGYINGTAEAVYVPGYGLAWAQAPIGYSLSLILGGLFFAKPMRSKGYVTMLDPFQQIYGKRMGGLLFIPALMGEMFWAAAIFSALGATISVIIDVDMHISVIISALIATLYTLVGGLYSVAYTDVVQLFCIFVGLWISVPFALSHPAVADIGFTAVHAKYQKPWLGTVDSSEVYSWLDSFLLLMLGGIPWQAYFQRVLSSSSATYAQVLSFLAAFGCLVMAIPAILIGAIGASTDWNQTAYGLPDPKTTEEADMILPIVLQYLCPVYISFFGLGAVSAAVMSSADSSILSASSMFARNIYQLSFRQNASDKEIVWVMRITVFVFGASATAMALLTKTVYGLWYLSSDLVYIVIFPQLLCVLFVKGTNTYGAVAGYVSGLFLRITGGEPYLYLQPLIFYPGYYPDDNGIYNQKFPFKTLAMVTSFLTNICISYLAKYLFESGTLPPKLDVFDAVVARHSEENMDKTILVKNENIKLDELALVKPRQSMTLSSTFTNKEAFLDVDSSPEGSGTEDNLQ

[21] = fluconazole-exposed Candida albicans growth modulators – fluorescence, retest, confirmation (AID 2467); assay type: functional, cell-based
[22] = NIH-3T3 fibroblast cytotoxicity, dose response, cytotoxicity control, cell-based, fluorescence, Alamar Blue, secondary assay (AID 2327); assay type: functional;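 also: NIH-3T3 mouse fibroblasts cultured with fluconazole at 8 µg/mL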
[23] = target: T6, Zinc finger protein mex-5 (Caenorhabditis elegans, UniProt Q9XUB2); test: potency of MEX-5 RNA-binding blockers – biochemical, C. elegans, fluorescence polarization, dose response (AID 1960)
T6 sequence (Q9XUB2 whole entry): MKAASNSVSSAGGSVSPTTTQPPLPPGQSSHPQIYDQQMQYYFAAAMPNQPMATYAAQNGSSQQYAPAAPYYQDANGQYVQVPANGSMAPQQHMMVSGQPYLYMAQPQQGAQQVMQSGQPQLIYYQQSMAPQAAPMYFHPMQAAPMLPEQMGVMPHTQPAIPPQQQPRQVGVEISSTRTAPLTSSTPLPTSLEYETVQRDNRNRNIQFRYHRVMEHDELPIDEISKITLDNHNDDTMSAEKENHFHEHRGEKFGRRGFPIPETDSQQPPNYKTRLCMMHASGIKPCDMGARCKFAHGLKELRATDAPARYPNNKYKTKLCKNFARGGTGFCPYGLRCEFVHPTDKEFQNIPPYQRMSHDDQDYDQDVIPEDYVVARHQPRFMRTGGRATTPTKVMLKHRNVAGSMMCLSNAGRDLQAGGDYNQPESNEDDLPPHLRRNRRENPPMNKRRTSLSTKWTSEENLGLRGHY

[24] = target: T7, RNA-binding protein pos-1 (Caenorhabditis elegans, UniProt G5EF15); test: disruptors of C. elegans POS-1 RNA interaction – biochemical, fluorescence polarization, dose response (AID 1964);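 also: purified POS-1 fused to maltose binding protein made in E. coli; potency of compounds blocking POS-1 binding to fluorescent RNA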
T7 sequence (G5EF15 whole entry): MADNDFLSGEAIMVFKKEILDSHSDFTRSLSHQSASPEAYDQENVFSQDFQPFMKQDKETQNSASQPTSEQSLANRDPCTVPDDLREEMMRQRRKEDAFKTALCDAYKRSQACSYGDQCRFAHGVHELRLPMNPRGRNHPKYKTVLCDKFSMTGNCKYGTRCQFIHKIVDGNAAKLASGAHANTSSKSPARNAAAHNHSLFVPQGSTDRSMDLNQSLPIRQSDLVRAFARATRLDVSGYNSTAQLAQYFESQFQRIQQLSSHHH

[25] = target: Large T antigen (Simian virus 40, UniProt P03070); assay type: functional, Betapolyomavirus macacae;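 also: Confirmatory-stage PubChem screen for compounds that inhibit SV40 T antigen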
Chain of Large T antigen (P03070 whole entry): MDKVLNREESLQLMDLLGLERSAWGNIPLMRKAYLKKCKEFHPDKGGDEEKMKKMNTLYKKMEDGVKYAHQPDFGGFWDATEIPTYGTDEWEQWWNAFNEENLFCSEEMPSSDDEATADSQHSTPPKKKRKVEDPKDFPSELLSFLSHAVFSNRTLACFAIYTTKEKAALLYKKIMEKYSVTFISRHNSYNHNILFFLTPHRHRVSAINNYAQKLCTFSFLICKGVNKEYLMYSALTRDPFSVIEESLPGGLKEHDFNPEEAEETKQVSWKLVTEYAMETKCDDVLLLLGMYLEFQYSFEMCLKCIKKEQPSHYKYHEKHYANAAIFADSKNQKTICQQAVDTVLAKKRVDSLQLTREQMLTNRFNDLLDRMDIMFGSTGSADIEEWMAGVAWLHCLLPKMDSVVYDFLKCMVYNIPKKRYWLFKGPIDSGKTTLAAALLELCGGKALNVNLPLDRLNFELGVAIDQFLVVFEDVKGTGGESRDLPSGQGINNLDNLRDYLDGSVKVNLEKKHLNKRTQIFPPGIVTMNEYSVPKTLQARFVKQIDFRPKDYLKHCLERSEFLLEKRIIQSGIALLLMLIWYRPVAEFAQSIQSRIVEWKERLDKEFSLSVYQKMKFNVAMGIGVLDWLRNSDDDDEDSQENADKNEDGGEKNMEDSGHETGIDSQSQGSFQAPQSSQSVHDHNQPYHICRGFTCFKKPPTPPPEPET

T4 sequence (P11940 whole entry, the tested form may be a part): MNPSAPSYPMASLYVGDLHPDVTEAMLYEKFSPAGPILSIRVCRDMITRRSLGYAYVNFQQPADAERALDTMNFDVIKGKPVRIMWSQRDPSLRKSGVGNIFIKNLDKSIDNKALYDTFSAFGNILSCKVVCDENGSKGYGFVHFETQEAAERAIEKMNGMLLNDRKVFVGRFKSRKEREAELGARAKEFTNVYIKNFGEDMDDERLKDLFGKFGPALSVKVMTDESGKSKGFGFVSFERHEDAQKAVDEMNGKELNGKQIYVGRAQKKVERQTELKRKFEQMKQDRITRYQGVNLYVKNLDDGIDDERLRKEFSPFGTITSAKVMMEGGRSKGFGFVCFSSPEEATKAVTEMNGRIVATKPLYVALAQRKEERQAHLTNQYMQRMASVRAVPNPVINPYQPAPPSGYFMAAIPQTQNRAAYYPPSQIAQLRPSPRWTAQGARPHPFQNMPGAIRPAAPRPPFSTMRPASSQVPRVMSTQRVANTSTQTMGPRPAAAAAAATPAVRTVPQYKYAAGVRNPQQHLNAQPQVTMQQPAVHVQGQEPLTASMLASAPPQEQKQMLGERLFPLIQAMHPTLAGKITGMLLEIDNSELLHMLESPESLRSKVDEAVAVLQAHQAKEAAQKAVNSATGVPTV
Chain of Cytochrome P450 2C9 (P11712 whole entry): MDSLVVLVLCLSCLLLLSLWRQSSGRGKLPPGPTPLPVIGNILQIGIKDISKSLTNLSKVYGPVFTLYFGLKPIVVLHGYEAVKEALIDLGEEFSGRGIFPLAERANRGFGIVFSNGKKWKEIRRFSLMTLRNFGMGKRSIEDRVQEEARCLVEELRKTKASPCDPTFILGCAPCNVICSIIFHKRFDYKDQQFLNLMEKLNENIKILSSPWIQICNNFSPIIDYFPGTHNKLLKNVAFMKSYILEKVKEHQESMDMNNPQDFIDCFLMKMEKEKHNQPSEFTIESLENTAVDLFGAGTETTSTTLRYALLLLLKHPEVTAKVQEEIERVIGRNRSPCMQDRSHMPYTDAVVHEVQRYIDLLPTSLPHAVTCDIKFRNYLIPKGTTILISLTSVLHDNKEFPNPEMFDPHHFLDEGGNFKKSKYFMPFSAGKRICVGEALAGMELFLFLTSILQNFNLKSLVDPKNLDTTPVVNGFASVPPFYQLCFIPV
Chain of Cytochrome P450 2C19 (P33261 whole entry): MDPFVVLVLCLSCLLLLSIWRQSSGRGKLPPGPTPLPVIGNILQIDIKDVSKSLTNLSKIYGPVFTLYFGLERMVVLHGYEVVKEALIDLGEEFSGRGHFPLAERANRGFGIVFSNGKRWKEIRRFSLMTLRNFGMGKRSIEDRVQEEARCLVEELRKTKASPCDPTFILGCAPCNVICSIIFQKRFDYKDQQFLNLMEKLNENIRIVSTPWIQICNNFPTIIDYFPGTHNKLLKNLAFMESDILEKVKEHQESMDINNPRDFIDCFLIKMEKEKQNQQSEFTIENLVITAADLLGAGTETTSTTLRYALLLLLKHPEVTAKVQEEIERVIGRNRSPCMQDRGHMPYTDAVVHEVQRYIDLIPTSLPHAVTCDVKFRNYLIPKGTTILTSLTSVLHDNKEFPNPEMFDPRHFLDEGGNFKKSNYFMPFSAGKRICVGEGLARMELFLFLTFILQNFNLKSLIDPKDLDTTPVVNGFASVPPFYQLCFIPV
Chain of Cytochrome P450 2D6 (P10635 whole entry): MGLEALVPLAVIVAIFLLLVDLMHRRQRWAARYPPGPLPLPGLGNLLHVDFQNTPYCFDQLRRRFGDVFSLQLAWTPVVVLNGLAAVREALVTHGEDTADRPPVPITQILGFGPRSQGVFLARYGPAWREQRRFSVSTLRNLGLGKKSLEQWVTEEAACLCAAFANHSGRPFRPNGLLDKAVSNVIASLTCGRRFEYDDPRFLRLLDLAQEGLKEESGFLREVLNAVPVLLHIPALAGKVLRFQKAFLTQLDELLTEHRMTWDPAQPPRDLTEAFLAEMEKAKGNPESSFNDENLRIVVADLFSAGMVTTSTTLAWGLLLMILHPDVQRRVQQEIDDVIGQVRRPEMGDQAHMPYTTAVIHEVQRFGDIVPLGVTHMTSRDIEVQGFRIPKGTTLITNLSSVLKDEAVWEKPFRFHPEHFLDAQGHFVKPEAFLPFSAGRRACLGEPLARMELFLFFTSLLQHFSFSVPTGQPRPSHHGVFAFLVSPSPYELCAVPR
Chain of Genome polyprotein (P29990 2492-3391 limits assumed): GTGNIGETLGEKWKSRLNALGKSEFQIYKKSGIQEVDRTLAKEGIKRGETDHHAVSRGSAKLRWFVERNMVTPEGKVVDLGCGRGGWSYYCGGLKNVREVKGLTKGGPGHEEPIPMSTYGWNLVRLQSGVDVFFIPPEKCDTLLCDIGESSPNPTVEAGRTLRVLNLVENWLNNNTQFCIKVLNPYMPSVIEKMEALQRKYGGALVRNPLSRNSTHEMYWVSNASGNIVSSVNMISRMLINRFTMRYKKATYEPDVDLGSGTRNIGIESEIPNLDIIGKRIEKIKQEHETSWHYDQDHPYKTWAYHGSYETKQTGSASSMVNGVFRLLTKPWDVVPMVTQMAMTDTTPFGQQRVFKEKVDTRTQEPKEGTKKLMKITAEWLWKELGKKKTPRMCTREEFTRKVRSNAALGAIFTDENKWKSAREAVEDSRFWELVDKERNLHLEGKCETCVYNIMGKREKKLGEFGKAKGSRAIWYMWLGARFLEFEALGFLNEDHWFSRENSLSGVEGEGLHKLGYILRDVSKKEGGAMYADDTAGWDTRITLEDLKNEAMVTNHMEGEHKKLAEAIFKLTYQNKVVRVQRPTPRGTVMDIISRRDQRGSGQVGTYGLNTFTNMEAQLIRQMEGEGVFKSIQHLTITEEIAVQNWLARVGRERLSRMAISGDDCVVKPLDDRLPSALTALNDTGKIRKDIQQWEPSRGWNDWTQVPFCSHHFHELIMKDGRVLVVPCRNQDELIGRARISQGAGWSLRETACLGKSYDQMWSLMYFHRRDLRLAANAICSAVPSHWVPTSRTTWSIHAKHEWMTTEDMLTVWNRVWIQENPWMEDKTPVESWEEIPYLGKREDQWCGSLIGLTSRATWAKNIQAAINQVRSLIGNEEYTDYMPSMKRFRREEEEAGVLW

C=CCN(CC(=O)NCc1ccccc1)C(=O)c1csnn1
EC50 [1]: > 53 µM (inactive)
IC50 [2]: > 47.1 µM (inactive)

O=C1Nn2c(nc3c(c2=O)CCCC3)/C1=N/Nc1cccc(Cl)c1
EC50 [1]: > 53 µM (inactive)
IC50 [3]: 5.32 µM (active)
IC50 [2]: 19.2 µM (active)
IC50 [4]: 62.4 µM (active)

O=C(NCc1cccc(Cl)c1)C1CCC(=O)N(CC2CCCCC2)C1 (stereo unspecified)
EC50 [1]: > 53 µM (inactive)
IC50 [2]: > 47.1 µM (inactive)

CN(C)/C=C/C(=O)c1ccc2noc(-c3cccc(F)c3)c2c1
AC50 [5]: 7.95 µM (active)

COc1cc2c(cc1NC(=O)COC(=O)CNC(=O)c1ccccc1)oc1ccccc12
EC50 [1]: > 53 µM (inactive)
IC50 [2]: > 47.1 µM (inactive)

O=c1c2ccccc2nnn1CSc1nnc(COc2ccc(Cl)cc2)n1Cc1ccco1
AC50 [6]: 15.2 µM (active)
AC50 [5]: 3.26 µM (active)
AC50 [7]: 1.12 µM (active)

C/C(=N\OC(=O)c1cccc(C)c1)c1sc(-c2ccccc2)nc1C
AC50 [8]: 8.91 µM (inconclusive)
AC50 [9]: inconclusive

Nc1cc(O)c2cc(/N=N/c3ccc(/N=N/c4ccc(/N=N/c5ccc6cc(S(=O)(=O)O)cc(S(=O)(=O)O)c6c5)c5ccccc45)c4cc(S(=O)(=O)O)ccc34)c(S(=O)(=O)O)cc2c1
GI50 [10]: > 100 µM (inactive)
GI50 [11]: > 100 µM (inactive)

Cc1cc(C)cc(NC(=O)CCc2nc3ccccc3[nH]2)c1
AC50 [12]: 3.16 µM (inconclusive)
AC50 [9]: inconclusive

COc1ccccc1N1CCN(C(c2ccc(Cl)cc2)c2nnnn2C(C)(C)C)CC1 (stereo unspecified)
EC50 [1]: > 53 µM (inactive)
IC50 [2]: > 47.1 µM (inactive)

CCN1CCN(C(c2ccc(C(F)(F)F)cc2)c2ccc3cccnc3c2O)CC1 (stereo unspecified)
IC50 [13]: > 66 µM (inactive)
EC50 [14]: 3.5 µM (active)
AC50 [15]: 2.15 µM (active)
AC50 [5]: 1.36 µM (active)
EC50 [16]: 3.02 µM (active)
IC50 [17]: > 66 µM (inactive)

Cc1cc(N2CCN(C(=O)c3ccco3)CC2)n2ncc(-c3ccccc3)c2n1
AC50 [5]: 2.23 µM (active)

Cc1cnc(CNc2ccnc(-c3cccnc3)n2)cn1
AC50 [9]: inconclusive
AC50 [18]: 25.1 µM (inconclusive)

O=c1oc2ccccc2c(O)c1Cc1cc(Cl)c2cccnc2c1O
AC50 [19]: 1.09 µM (active)
IC50 [20]: 15.2 µM (active)
EC50 [21]: > 38 µM (not active)
AC50 [5]: 7.2 µM (active)
EC50 [22]: 76.3 µM (active)

COc1ccc(CCn2c(=O)c3cccnc3n(Cc3cccc([N+](=O)[O-])c3)c2=O)cc1OC
EC50 [1]: > 53 µM (inactive)
IC50 [2]: > 47.1 µM (inactive)

CC(C)(C)OC(=O)NC(Cc1ccccc1)C(=O)N1CCC(C(=O)NCC(=O)Nc2ccc(F)cc2)CC1 (stereo unspecified)
IC50 [13]: 28.7 µM (inactive)
EC50 [1]: > 53 µM (inactive)
IC50 [17]: > 66 µM (inactive)
IC50 [2]: > 47.1 µM (inactive)
EC50 [23]: 2.04 µM (inconclusive)
EC50 [24]: 7.08 µM (active)

O=C1C=CC(=O)N1c1ccc(O)cc1
IC50 [25]: 81 µM (active)
AC50 [5]: 3.13 µM (active)
